The source made the active and inactive calls. How the calls were made is not given here.

In the series the test system is CCRIS mutagenicity, Ames/micronucleus/aberration tests. In words: CCRIS mutagenicity studies.
Setting [1] is: Test System: AMES SALMONELLA TYPHIMURIUM, Strain/Indicator: TA98, Metabolic Activation: HAMSTER, LIVER, S-9, AROCLOR 1254, Method: PREINCUBATION
The mark [2] stands for this setting: Test System: AMES SALMONELLA TYPHIMURIUM, Strain/Indicator: TA98, Metabolic Activation: NONE, Method: PREINCUBATION
The mark [3] stands for this setting: Test System: AMES SALMONELLA TYPHIMURIUM, Strain/Indicator: TA98, Metabolic Activation: RAT, LIVER, S-9, AROCLOR 1254, Method: PREINCUBATION
Where [4] appears, read: Test System: AMES SALMONELLA TYPHIMURIUM, Strain/Indicator: TA100, Metabolic Activation: HAMSTER, LIVER, S-9, AROCLOR 1254, Method: PREINCUBATION
[5] abbreviates: Test System: AMES SALMONELLA TYPHIMURIUM, Strain/Indicator: TA100, Metabolic Activation: NONE, Method: PREINCUBATION
[6] abbreviates: Test System: AMES SALMONELLA TYPHIMURIUM, Strain/Indicator: TA100, Metabolic Activation: RAT, LIVER, S-9, AROCLOR 1254, Method: PREINCUBATION
Setting [7] is: Test System: AMES SALMONELLA TYPHIMURIUM, Strain/Indicator: TA1535, Metabolic Activation: HAMSTER, LIVER, S-9, AROCLOR 1254, Method: PREINCUBATION
The mark [8] stands for this setting: Test System: AMES SALMONELLA TYPHIMURIUM, Strain/Indicator: TA1535, Metabolic Activation: NONE, Method: PREINCUBATION
[9] abbreviates: Test System: AMES SALMONELLA TYPHIMURIUM, Strain/Indicator: TA1535, Metabolic Activation: RAT, LIVER, S-9, AROCLOR 1254, Method: PREINCUBATION
Setting [10] is: Test System: AMES SALMONELLA TYPHIMURIUM, Strain/Indicator: TA1537, Metabolic Activation: NONE, Method: PREINCUBATION
The mark [11] stands for this setting: Test System: AMES SALMONELLA TYPHIMURIUM, Strain/Indicator: TA98, Metabolic Activation: NONE, Method: STANDARD PLATE.

For the compound `Clc1cc(Cl)c(Cl)c(Cl)c1`, the mutagenic call is “inactive; negative” (End Point: IN VITRO CHROMOSOMAL ABERRATIONS, Test System: CHO-LB CELLS, Metabolic Activation: NONE); “inactive; negative” (End Point: IN VITRO CHROMOSOMAL ABERRATIONS, Test System: CHO-LB CELLS, Metabolic Activation: RAT, LIVER, S-9, AROCLOR 1254); “inactive; negative” under setting [1]; “inactive; negative” under setting [2]; “inactive; negative” under setting [3]; “inactive; negative” under setting [4]. The mutagenic call is “inactive; negative” under setting [5]; “inactive; negative” under setting [6]; “inactive; negative” under setting [7]; “inactive; negative” under setting [8]; “inactive; negative” under setting [9]; “inactive; negative” (Test System: AMES SALMONELLA TYPHIMURIUM, Strain/Indicator: TA1537, Metabolic Activation: HAMSTER, LIVER, S-9, AROCLOR 1254, Method: PREINCUBATION). The mutagenic call is “inactive; negative” under setting [10] and “inactive; negative” (Test System: AMES SALMONELLA TYPHIMURIUM, Strain/Indicator: TA1537, Metabolic Activation: RAT, LIVER, S-9, AROCLOR 1254, Method: PREINCUBATION).

With `CCCCCCCCCCCCCCCC(=O)OCC1(O)CC23CC[C@@H]4c5ccoc5C=CC4(C)C2CCC1C3` (some centres undefined), the mutagenic call (Test System: AMES SALMONELLA TYPHIMURIUM, Strain/Indicator: TM677, Metabolic Activation: NONE, Method: PREINCUBATION) is “inactive; negative” and the mutagenic call (Test System: AMES SALMONELLA TYPHIMURIUM, Strain/Indicator: TM677, Metabolic Activation: RAT, LIVER, S-9, AROCLOR 1254, Method: PREINCUBATION) is “inactive; negative”.

`O=[N+]([O-])c1ccc2c(ccc3cc([N+](=O)[O-])ccc32)c1`: the mutagenic call (Test System: AMES SALMONELLA TYPHIMURIUM, Strain/Indicator: TA98(1,8-DNP6), Metabolic Activation: NONE, Method: STANDARD PLATE) was “active; positive”; the mutagenic call (Test System: AMES SALMONELLA TYPHIMURIUM, Strain/Indicator: TA98(NR), Metabolic Activation: NONE, Method: STANDARD PLATE) is “active; positive”; the mutagenic call under setting [2] was “active; positive”; the mutagenic call under setting [11] is “active; positive”; the mutagenic call (Test System: AMES SALMONELLA TYPHIMURIUM, Strain/Indicator: TA98, Metabolic Activation: RAT, LIVER, S-9, PCB (10%), Method: PREINCUBATION) was “inactive; negative”; the mutagenic call (Test System: AMES SALMONELLA TYPHIMURIUM, Strain/Indicator: TA7001, Metabolic Activation: NONE, Method: PREINCUBATION) was “active; positive”. For the same compound, the mutagenic call by setting is: (Test System: AMES SALMONELLA TYPHIMURIUM, Strain/Indicator: TA7002, Metabolic Activation: NONE, Method: PREINCUBATION) “active; positive”; (Test System: AMES SALMONELLA TYPHIMURIUM, Strain/Indicator: TA7003, Metabolic Activation: NONE, Method: PREINCUBATION) “active; positive”; (Test System: AMES SALMONELLA TYPHIMURIUM, Strain/Indicator: TA7004, Metabolic Activation: NONE, Method: PREINCUBATION) “active; positive”; (Test System: AMES SALMONELLA TYPHIMURIUM, Strain/Indicator: TA7005, Metabolic Activation: NONE, Method: PREINCUBATION) “active; positive”; (Test System: AMES SALMONELLA TYPHIMURIUM, Strain/Indicator: TA7006, Metabolic Activation: NONE, Method: PREINCUBATION) “active; positive”.

With `COc1ccc2nc(N)[nH]c2c1`, the mutagenic call is, setting by setting: under setting [3], “inactive; negative”; under setting [6], “inactive; negative”.

Turning to `CCc1ccccc1`, the mutagenic call is, setting by setting: (Test System: AMES SALMONELLA TYPHIMURIUM, Strain/Indicator: TA97, Metabolic Activation: HAMSTER, LIVER, S-9, AROCLOR 1254, Method: PREINCUBATION) “inactive; negative”; (Test System: AMES SALMONELLA TYPHIMURIUM, Strain/Indicator: TA97, Metabolic Activation: NONE, Method: PREINCUBATION) “inactive; negative”; (Test System: AMES SALMONELLA TYPHIMURIUM, Strain/Indicator: TA97, Metabolic Activation: RAT, LIVER, S-9, AROCLOR 1254, Method: PREINCUBATION) “inactive; negative”; (Test System: AMES SALMONELLA TYPHIMURIUM, Strain/Indicator: TA98, Metabolic Activation: HAMSTER LIVER S-9, AROCLOR 1254 (10 OR 30%), Method: PREINCUBATION) “inactive; negative”; under setting [1], “inactive; negative”; under setting [2], “inactive; negative”. The mutagenic call runs as follows: (Test System: AMES SALMONELLA TYPHIMURIUM, Strain/Indicator: TA98, Metabolic Activation: RAT LIVER S-9, AROCLOR 1254 (10 OR 30%), Method: PREINCUBATION) “inactive; negative”; under setting [3], “inactive; negative”; (Test System: AMES SALMONELLA TYPHIMURIUM, Strain/Indicator: TA100, Metabolic Activation: HAMSTER LIVER S-9, AROCLOR 1254 (10 OR 30%), Method: PREINCUBATION) “inactive; negative”; under setting [4], “inactive; negative”; under setting [5], “inactive; negative”; (Test System: AMES SALMONELLA TYPHIMURIUM, Strain/Indicator: TA100, Metabolic Activation: RAT LIVER S-9, AROCLOR 1254 (10 OR 30%), Method: PREINCUBATION) “inactive; negative”. The mutagenic call reads like this: under setting [6], “inactive; negative”; (Test System: AMES SALMONELLA TYPHIMURIUM, Strain/Indicator: TA1535, Metabolic Activation: HAMSTER LIVER S-9, AROCLOR 1254 (10 OR 30%), Method: PREINCUBATION) “inactive; negative”; under setting [7], “inactive; negative”; under setting [8], “inactive; negative”; (Test System: AMES SALMONELLA TYPHIMURIUM, Strain/Indicator: TA1535, Metabolic Activation: RAT LIVER S-9, AROCLOR 1254 (10 OR 30%), Method: PREINCUBATION) “inactive; negative”; under setting [9], “inactive; negative”. Also, the mutagenic call reads like this: (Test System: AMES SALMONELLA TYPHIMURIUM, Strain/Indicator: TA1537, Metabolic Activation: HAMSTER LIVER S-9, AROCLOR 1254 (10 OR 30%), Method: PREINCUBATION) “inactive; negative”; under setting [10], “inactive; negative”; (Test System: AMES SALMONELLA TYPHIMURIUM, Strain/Indicator: TA1537, Metabolic Activation: RAT LIVER S-9, AROCLOR 1254 (10 OR 30%), Method: PREINCUBATION) “inactive; negative”; (Test System: MOUSE LYMPHOMA, Strain/Indicator: L5178Y (TK+/TK-), Metabolic Activation: NONE, Method: SUSPENSION/PLATE) “active; positive”.

On to `Cc1ccc2cc3c(c4c2c1CC4)C1NC1c1ccccc1-3` (centres undefined), for which the mutagenic call under setting [11] is “active; positive” and the mutagenic call (Test System: AMES SALMONELLA TYPHIMURIUM, Strain/Indicator: TA100, Metabolic Activation: NONE, Method: STANDARD PLATE) is “active; positive”.

For the compound `CN(C)CCNC(=O)c1cccc2c(=O)c3ccccc3[nH]c12`, the mutagenic call (Test System: AMES SALMONELLA TYPHIMURIUM, Strain/Indicator: TA1537, Metabolic Activation: NONE, Method: STANDARD PLATE) was “active; positive”.

These data come from PubChem BioAssay AID1259407 (Chemical Carcinogenesis Research Information System (CCRIS), 2018).
